Data reported in PubChem BioAssay AID624404 (Broad Institute, 2012).
Results filed as inconclusive are left out.

system: D54 LucT luciferase reporter counterscreen, luminescence, 24 h; experiment: luciferase activators in glycosylation-insensitive reporter cells, dose response, counter-screen for N-linked glycosylation inhibitor project, D54 LucT cells, luminescence, cherry pick (AID 624404)

| SMILES | AC35 [µM] |
| --- | --- |
| O=C(/C=C/c1cccc(Br)c1)c1ccc2c(c1)OCO2 | 0.951 |
| COc1ccc(NC(=O)C2(C)Cc3c(-c4cccc(C(N)=O)c4)ccnc3O2)cc1 (stereo not drawn) | 3.62 |
| COc1ccc(C(=O)n2c(-c3ccco3)nc3ccccc32)cc1 | 0.934 |
| C(=N\Nc1nc2ccccc2[nH]1)/c1c[nH]c2ccccc12 | 0.718 |
| O=S(=O)([N-]c1nc2ccccc2nc1-n1cc[n+](Cc2ccccc2)c1)c1ccc(Br)cc1 | 0.057 |
| COc1cc(NC(C(=O)Nc2cccc(C(C)=O)c2)c2ccccc2)cc(OC)c1OC (stereo not drawn) | 0.00556 |
| CCOc1ccc(N2CCc3c(C)nc(SC)nc32)cc1 | 3.06 |
| Cc1ccc2nc(SCc3nnc(-c4ccccc4[N+](=O)[O-])o3)c(C#N)cc2c1 | 1.3 |
| O=C(COC(=O)c1cccc(Br)c1)Nc1cccc2c1C(=O)c1ccccc1C2=O | 1.15 |
| O=c1[nH]c(-c2ccccc2)nc2sc(-c3ccccc3)cc12 | 0.188 |
| O=C(Nc1cc(Cl)ccc1N1CCOCC1)c1ccc(N2CCCC2=O)cc1 | 0.212 |
| COc1cc(OC)cc(C(=O)NCC(=O)Nc2ccc(-c3ccccc3)cc2)c1 | 0.501 |
| COc1ccc(/C=C2\CC/C(=C\c3ccc(OC)c(OC)c3)C2=O)cc1OC | 0.155 |
| COc1ccc2c(c1)OC[C@H]1[C@H]2N2C(=O)c3ccc(F)cc3NC(=O)[C@@]2(C)[C@H]1c1ccccc1 | 1.07 |
| COc1ccccc1-n1cnc2cc(NCc3cccs3)ccc21 | 0.266 |
| COc1ccc2nc(C)cc(Nc3ccc(N4CCN(C)CC4)cc3)c2c1 | 4.75 |
| COc1cc2c(cc1OC)C(c1ccccc1)N(C(=O)c1ccccc1F)CC2 (stereo not drawn) | 0.608 |
| COc1ccc(CCNC(=O)c2cc(-c3ccco3)on2)cc1OC | 15 |
| c1ccc(C2=Nn3c(nnc3-c3n[nH]c4c3CCC4)SC2)cc1 | 2.25 |
| Cc1cc2cc(CNC(=O)Cc3cccs3)ccc2n1C | 13.6 |
| CC(=O)Nc1cccc(NC(=O)c2ccccc2OCc2ccccc2)c1 | 3.83 |
| NC1(C(=O)O)CSSC1 | 3.05 |

| SMILES | AC35 [µM] |
| --- | --- |
| Cc1ccc(-c2cc(C(=O)N/N=C/c3c[nH]c4ccccc34)[nH]n2)cc1 | 0.101 |
| NC(=O)CC(NC(=O)Cc1ccc(Br)cc1)c1ccc(NC2CCCC2)c([N+](=O)[O-])c1 (stereo not drawn) | 2.87 |
| O=C(C=Cc1ccccc1F)c1ccccc1 | 0.199 |
| COc1ccc2oc(-c3ccccc3[N+](=O)[O-])cc(=O)c2c1 | 0.174 |
| Cc1ccc(S(=O)(=O)N(C)C[C@H]2Oc3ccc(NC(=O)C4CCCCC4)cc3C(=O)N([C@H](C)CO)C[C@H]2C)cc1 | 0.555 |
| CC1CN(c2nc(-c3ccccc3)nnc2-c2ccccc2)CC(C)O1 (stereo not drawn) | 1.39 |
| O=C(c1cccs1)N1CCC(c2nc3c(nnn3Cc3cccc(Cl)c3)c(=O)[nH]2)CC1 | 0.174 |
| O=C(N/N=C\c1cn(-c2ccccc2)nc1-c1ccccc1)c1ccc(Br)o1 | 0.957 |
| COc1ccc([C@@H]2[C@@H]3C(=O)N(C(C)(C)C)C(=O)[C@@H]3[C@]3(Cc4ccccc4)C(=O)N(c4cccc(C)c4)C(=O)N23)cc1 | 0.843 |
| COc1ccc2c(c1)OC[C@H]1[C@H]2N2C(=O)c3cc(OC)ccc3NC(=O)[C@@]2(C)[C@H]1c1ccccc1 | 1.08 |
| COc1ccc2c(c1)[C@H]1[C@H](CO2)[C@H](c2ccccc2)[C@]2(C)C(=O)Nc3ccc(Br)cc3C(=O)N12 | 0.233 |
| Cc1ccnc(NC(=O)CCCOc2cc(=O)n(C)c3ccccc23)c1 | 3.22 |
| Cc1ccc(NC(=O)c2ccc(Cl)cc2[N+](=O)[O-])nc1 | 2.42 |
| Cc1ccc(/C=N/NC(=O)c2sccc2OCc2ccc(F)cc2)cc1 | 1.26 |
| O=C(NC1CCCCC1)c1cccc2c1C(=O)c1ccc(-c3ccc(OC(F)(F)F)cc3)cc1S2(=O)=O | 0.0312 |
| Cc1cc(C(=O)N/N=C/c2c3ccccc3cc3ccccc23)n[nH]1 | 0.643 |
| O=C(c1ccc(Cl)c(S(=O)(=O)N2CCCCC2)c1)N1CCN(Cc2ccccc2)CC1 | 1.92 |
| Nc1cc2c(cc1Br)-c1c(C(=O)O)cccc1C2O (stereo not drawn) | 2.68 |
| CCc1cccc(CC)c1NC(=O)CN1C2CCCC1CC(NC(=O)Nc1cccc(OC)c1)C2 (stereo not drawn) | 3.14 |
| CCc1nc2ccc(C(=O)NCCc3c[nH]c4ccccc34)cn2c1N(C=O)CCC(C)C | 0.645 |
| O=C(N/N=C/c1ccco1)c1ccccc1OCc1ccccc1Cl | 1.11 |
| COc1ccc(C2(CNC(=O)c3cc(OC)c(OC)c(OC)c3)CCCC2)cc1OC | 3.41 |

| SMILES | AC35 [µM] |
| --- | --- |
| CNC(=O)c1cccn(Cc2cccc(C(F)(F)F)c2)c1=O | 0.231 |
| Cc1ccc2c(c1)[C@H]1[C@H](CO2)[C@H](c2ccccc2)[C@]2(C)C(=O)Nc3cc(Cl)ccc3C(=O)N12 | 1.06 |
| O=C(NCc1ccccc1Br)c1cccc2c1C(=O)c1ccc(-c3ccc(OC(F)(F)F)cc3)cc1S2(=O)=O | 0.408 |
| Cn1nc(C(=O)Nc2cccc(S(=O)(=O)N3CCCCC3)c2)c2ccccc2c1=O | 0.0503 |
| Cc1cccn2c(=O)c3cc(C(=O)N4CCC5(CC4)OCCO5)n(C)c3nc12 | 0.31 |
| N#Cc1c(-c2ccc(F)cc2)c(-c2ccc(F)cc2)nn(CCO)c1=O | 0.997 |
| CCOC(=O)c1c(C)[nH]c(C(=O)N/N=C/c2ccc(OC)c(OC)c2)c1C | 0.526 |
| Cn1c(=O)n(C)c2cc(C(=O)Nc3ccc4c(c3)OCO4)ccc21 | 1.87 |
| Cn1c(=O)n(C)c2cc(NS(=O)(=O)c3ccc4c(c3)CCCC4)ccc21 | 0.416 |
| CNC(=O)c1cccc(NC(=O)c2ccccc2OCc2ccccc2)c1 | 0.454 |
| CC(=O)Nc1ccc(-c2ccnc3c2CC(C(=O)NCc2cccc(Cl)c2)O3)cc1 (stereo not drawn) | 0.0576 |
| COc1ccc(-c2cc(C(=O)NCC(c3ccccc3)N(C)C)c3ccccc3n2)cc1OC (stereo not drawn) | 1.1 |
| Cc1ccc(C(=O)NCc2nnc(SCC(=O)NC(C)c3ccccc3)n2C)cc1 (stereo not drawn) | 2.43 |
| CC(=O)Nc1cccc(-c2ccnc3c2CC(C)(C(=O)NCC2CC2)O3)c1 (stereo not drawn) | 11.5 |
| COc1cccc(-c2nn(C)c3sc(C(=O)NCc4ccco4)cc23)c1 | 3.35 |
| CC[C@H](C)C(=O)O[C@H]1C[C@@H](C)C=C2C=C[C@H](C)[C@H](CC[C@@H]3C[C@@H](O)CC(=O)O3)[C@H]21 | 0.695 |
| Cc1cccc(C(=O)Oc2ccccc2/C=N/NC(=O)c2ccc(NC(=O)C(C)(C)C)cc2)c1 | 2.69 |
| Cc1ccc(Nc2nc(N)nc(CN3CCN(Cc4ccccc4)CC3)n2)cc1Cl | 0.107 |
| Cc1ccc(N2C(=O)Nc3ccccc3C2(O)C(=O)N2CCN(c3ccccn3)CC2)cc1C (stereo not drawn) | 0.375 |
| COc1cc(Nc2nc3c(N)cc(C(F)(F)F)cc3nc2-c2ccccc2)cc(OC)c1OC | 3.87 |
| O=C1[C@H]2[C@@H](c3ccc(F)cc3)N3C(=O)N(c4cccc(Cl)c4)C(=O)[C@@]3(Cc3ccccc3)[C@H]2C(=O)N1C1CCCCC1 | 1.06 |
| Cn1c(=O)n(C)c2cc(S(=O)(=O)N3CCCc4ccccc43)ccc21 | 10.2 |

| SMILES | AC35 [µM] |
| --- | --- |
| O=C(Nc1c(Cl)ccc2nsnc12)c1ccc([N+](=O)[O-])o1 | 0.778 |
| O=C1[C@H]2[C@@H](c3ccc(F)cc3)N3C(=O)N(c4cccc(Br)c4)C(=O)[C@@]3(Cc3ccccc3)[C@H]2C(=O)N1C1CCCCC1 | 0.48 |
| Cc1nnc2c3ccccc3c(-c3ccccc3)nn12 | 0.221 |
| COc1ccc([C@@H]2[C@@H]3C(=O)N(C(C)(C)C)C(=O)[C@@H]3[C@]3(Cc4ccccc4)C(=O)N(c4cccc(Cl)c4)C(=O)N23)cc1 | 2.18 |
| CC(C)[n+]1ccn(C2=C([O-])c3ccccc3C(=O)/C2=N\S(=O)(=O)c2ccccc2)c1 | 2.37 |
| CCOC(=O)c1c(C)nc2c(c1-c1cc(OC)c(OC)c(OC)c1)C(=O)c1ccccc1-2 | 0.514 |
| O=C(N/N=C/c1cccnc1)c1cc(-c2ccccc2OCc2ccccc2)n[nH]1 | 2.46 |
| COc1ccc(CC(=O)NCc2ccc(-n3cccc3)cc2)cc1OC | 1.61 |
| COc1ccc(-n2c(NNC(C)=O)nc3sc4c(c3c2=O)CCCC4)cc1 | 1.86 |
| O=C(N/N=C/c1ccccc1)c1sccc1OCc1ccc(F)cc1 | 3.06 |
| Cc1cc(=O)n2c3c(c4c(cc13)c(CN(C)C)cc(=O)n4C)OC2 | 0.0315 |
| OCC1OC(n2ccc3c(SCc4ccccc4)ncnc32)C(O)C1O (stereo not drawn) | 0.148 |
| COc1cc(C(=O)OCCCN2CCCN(CCCOC(=O)c3cc(OC)c(OC)c(OC)c3)CC2)cc(OC)c1OC | 2.19 |
| Cc1ccc(S(=O)(=O)N2CCN(C(=O)COC(=O)c3cc([N+](=O)[O-])ccc3NCCO)CC2)c(C)c1 | 1.46 |
| CC(C)Sc1ccccc1C(=O)Nc1ccc2c(c1)n(C)c(=O)n2C | 1.82 |
| COc1ccccc1-c1csc(C(NC(C)=O)c2ccccc2)n1 (stereo not drawn) | 0.643 |
| COc1ccc(NC(=O)C2Cc3c(-c4cccc(NC(C)=O)c4)ccnc3O2)cc1OC (stereo not drawn) | 1.83 |
| COc1ccccc1N1CCN(c2ccc3c(c2)S(=O)(=O)c2cccc(C(=O)NCC4CC4)c2C3=O)CC1 | 1.19 |
| Cc1ccnc(NC(=O)C(Cc2ccccc2)NC(=O)c2ccccc2)c1 (stereo not drawn) | 0.335 |
| N#Cc1ccc(-c2cccs2)nc1SCc1cccnc1 | 0.848 |
| Cc1cccc(CCNC(=O)CCCOc2cc(=O)n(C)c3ccccc23)c1 | 0.321 |
| O=C(CCl)Nc1cc(S(=O)(=O)N2CCCCCC2)ccc1Cl | 1.16 |
